Entries after “also recorded” stand apart in the source; their conditions may differ.
Test system: 504 cancer cell lines
Assay: Drug sensitivity (IC50 index) of cancer cell lines with versus without a mutation in a module, compared by T-test
Assay type: cell-based
Settings: for T-Statistic, sensitivity to drug vs mutation in module: T-test of IC50 scores, cell lines with vs without mutation
Excerpt: An inference engine can be used to identify an association between drug sensitivity of a sample and module activity or mutation status. For example, by using a statistical test to compare the IC 50 indexes or other measures of drug sensitivity known to those skilled in the art, for two or more classes of samples determined by the presence or absence of a mutation within a module of interest or determined by a module feature (e.g. high or low activity). A statistical test, such as, for example, a T-test or Wilcoxon test or another test known to those skilled in the art can be used to compare the IC50 scores across two sets of samples. By way of example and not of limitation, an ANOVA analysis can be used to compare such scores over two or more classes of samples.
Change in drug sensitivity conditional on sample class determined by module activity or mutation status can be computed, for example, by using a statistical test by comparing, for example, the IC 50 indexes or other measures of drug sensitivity known to those skilled in the art, for two or more classes of samples. A statistical test, such as, for example, a T-test or Wilcoxon test or another test known to those skilled in the art can be used to compare the IC50 scores across two sets of samples. By way of example and not of limitation, an ANOVA analysis can be used to compare such scores over two or more classes of samples.
The Broad GDAC Firehose provides publicly-available preprocessed TCGA level 3 data and level 4 analyses packaged in a form amenable to immediate algorithmic intake (Marx, V. et al. Nat. Methods 10, 293-297 (2013); incorporated by reference in its entirety). From this resource gene mutations were obtained, copy-number variants and mRNA expression levels (microarray and RNAseq) for human subjects as well as selected clinical data such as overall patient survival and the list of administered oncology drugs for each patient were also obtained. Molecular data (including somatic mutations) as well as drug sensitivity data for 504 cancer cell lines were obtained, deposited and made publicly available by the Sage Bionetworks Synapse platform (Friend, S. et al. Cancer Discov. 2, 658 (2012); hereby incorporated by reference in its entirety).
A multidimensional multiscale map was generated where module colors indicate the change in drug sensitivity depending on the mutation status of a given module (i.e. module can contain a mutation in one of the genes or not) [FIG. 11]. The change is computed by comparing drug sensitivity for samples with or without mutations within genes belonging to a module. Drug sensitivity was measured by the IC 50 index (Soothill, J. S. et al. J. Antimicrob. Chemother. 29, 137-139 (1992); hereby incorporated by reference in its entirety). A T-test was used to compare the IC50 scores across two sets of samples. […] Cell lines with a relevant mutation are indicated as “1” in the boxplot and tend to have lower IC 50 values indicating higher sensitivity to AZD6244.

[1] = mutations in genes of module 16157
[2] = mutations in genes of module 16873
[3] = mutations in genes of module 17552
[4] = mutations in genes of module 17611

With Cn1cnc2c(F)c(Nc3ccc(Br)cc3Cl)c(C(=O)NOCCO)cc21 [AZD6244] the “change in drug sensitivity with module mutation” value (“change in drug sensitivity” for short) (module number 17454 as printed, FIG. 11) was “increased sensitivity”, the “T-Statistic, sensitivity to drug vs mutation in module” value (“T-Statistic … vs mutation in module” for short) (mutation in module 16157) was −6.876 and the “T-Statistic … vs mutation in module” value (mutation in module 16873) was −9.937. The “T-Statistic … vs mutation in module” value (mutation in module 17552) was −8.56, the “T-Statistic … vs mutation in module” value (mutation in module 17611) was −7.071 and the “change in drug sensitivity” value [1] was “more sensitive”. For the same compound, the “change in drug sensitivity” value [2] was “more sensitive”, the “change in drug sensitivity” value [3] was “increased sensitivity; also recorded: more sensitive” and the “change in drug sensitivity” value [4] was “more sensitive”.

O=C(NOC[C@H](O)CO)c1ccc(F)c(F)c1Nc1ccc(I)cc1F [PD.0325901] was tested, and the “T-Statistic … vs mutation in module” value (mutation in module 16157) was −6.692, the “T-Statistic … vs mutation in module” value (mutation in module 16873) was −10.52 and the “T-Statistic … vs mutation in module” value (mutation in module 17552) was −8.774. The “T-Statistic … vs mutation in module” value (mutation in module 17611) was −7.111, the “change in drug sensitivity” value [1] was “more sensitive” and the “change in drug sensitivity” value [2] was “more sensitive”. The “change in drug sensitivity” value [3] was “more sensitive” and the “change in drug sensitivity” value [4] was “more sensitive”.

Source: patent US20210073352A9, “SYSTEM AND METHOD FOR DRUG TARGET AND BIOMARKER DISCOVERY AND DIAGNOSIS USING A MULTIDIMENSIONAL MULTISCALE MODULE MAP” (Data4Cure, Inc., priority 2015, published 2021)
